Measurements taken from ChEMBL document CHEMBL5579831, “Discovery of novel CXCR4 inhibitors for the treatment of inflammation by virtual screening and biological evaluation” (Eur J Med Chem, 2024).
The source made the active and inactive calls. No cut-off for these calls is given here.

Experiments:
[1] = target: T1, C-X-C chemokine receptor type 4 (Homo sapiens, UniProt P61073); experiment: Binding affinity to CXCR4 in human MDA-MB-231 cells assessed as increase in thermal stability at 50 to 55 degreeC at 100 nM incubated for 12 hrs by CETSA; assay type: cell-based
MDA-MB-231 [2] = experiment: Inhibition of CXCR4/CXCL12 interaction in human MDA-MB-231 cells assessed as reduction in cell invasion at 100 nM measured after 24 hrs by H and E staining based matrix gel invasion assay
Mus musculus [3] = experiment: Antiinflammatory activity in xylene-induced mouse ear swelling model assessed as reduction in inflammatory cell infiltration at 10 to 30 mg/kg, ip pretreated with xylene for 30 mins followed by compound addition and measured after 2 hrs by H and E staining based light microscopic analysis; assay type: functional, organism-based; conditions: dose 10-30 mg/kg
MDA-MB-231 [4] = experiment: Inhibition of cell migration in human MDA-MB-231 cells at 100 nM measured after 24 hrs by wound healing based inverted microscopic analysis; assay type: functional
[5] = target: T1, C-X-C chemokine receptor type 4; experiment: Inhibition of fluorescently labeled 12G5 antibodies binding to CXCR4 in human MDA-MB-231 cells assessed as change in fluorescence intensity incubated for 3 hrs under dark condition by FACS assay; assay type: cell-based
MDA-MB-231 [6] = experiment: Inhibition of CXCR4/CXCL12-mediated AKT phosphorylation in human MDA-MB-231 cells by Western blot analysis; assay type: cell-based; conditions: dose 0.1-100 nM
MDA-MB-231 [7] = experiment: Cytotoxicity against human MDA-MB-231 cells assessed as reduction in cell viability at 10 uM incubated for 24 hrs by MTT assay; assay type: toxicity, cell-based; conditions: mda-mb-231, 24 h
[8] = Toxicity in ip dosed mouse assessed as median lethal dose by Bliss method; assay type: organism-based; conditions: in vivo, read-out: LD
Mus musculus [9] = experiment: Antiinflammatory activity in ip dosed xylene-induced mouse ear swelling model assessed as reduction in ear swelling pretreated with xylene for 30 mins followed by compound addition and measured after 2 hrs; assay type: functional, organism-based; conditions: dose 10-30 mg/kg

T1 sequence (P61073 whole entry): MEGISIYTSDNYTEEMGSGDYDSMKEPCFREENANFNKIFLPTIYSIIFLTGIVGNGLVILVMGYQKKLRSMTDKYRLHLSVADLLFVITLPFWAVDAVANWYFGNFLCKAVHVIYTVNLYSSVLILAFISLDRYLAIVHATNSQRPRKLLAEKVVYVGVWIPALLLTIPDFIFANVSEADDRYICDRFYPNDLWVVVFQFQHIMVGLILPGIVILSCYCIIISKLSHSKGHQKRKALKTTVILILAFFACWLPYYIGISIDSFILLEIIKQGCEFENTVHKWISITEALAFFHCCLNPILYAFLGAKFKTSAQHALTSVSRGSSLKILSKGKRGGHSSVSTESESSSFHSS

Q: With `O=S(=O)(NCC1CCCO1)c1ccc(Oc2ccc(S(=O)(=O)NCC3CCCO3)cc2)cc1` (centres undefined) as the compound, how does the Activity [1] read?
A: Active

Q: And the inhibition (MDA-MB-231 [2])?
A: Active

Q: What about the Activity (Mus musculus [3]) of the same compound?
A: Active

Q: And the inhibition (MDA-MB-231 [4])?
A: Active

Q: And the IC50 [5]?
A: 254 nM

Q: And the inhibition (MDA-MB-231 [6])?
A: Dose-Dependent Effect

Q: And the Activity (MDA-MB-231 [7])?
A: Non-Toxic

Q: And the LD50 [8]?
A: 72.6 mg/kg

Q: What about the Activity (Mus musculus [9]) of the same compound?
A: Dose-Dependent Effect
